Assay [1] deals with IL-17 production by CD4 T cells. The assay is described as follows: Human Th17 Assay. The class given is cell-based. The settings on record: 72 h; IL-17 in supernatant, 3 days, human CD4+ T cells; read-out: Human Th17 Assay, IC50. On the procedure: The human Th17 assay tests the effect of RORγt modulatory compounds on IL-17 production by CD4 T cells under conditions which favor Th17 differentiation. Total CD4^+ T cells were isolated from the peripheral blood mononuclear cells (PBMC) of healthy donors using a CD4^+ T cell isolation kit II, following the manufacturer's instructions (Miltenyi Biotec). […] 50 μL of compound at titrated concentrations in DMSO were added into each well at final DMSO concentration at 0.2%. Cells were incubated for 1 hour, then 50 μL of Th17 cell differentiation medium was added to each well. The final concentrations of antibodies and cytokines (R&D Systems) in differentiation medium were: 3×10^6/mL anti-CD3/CD28 beads (prepared using human T cell activation/expansion kit, Miltenyi Biotec), 10 μg/mL anti-IL4, 10 μg/mL anti-IFNγ, 10 ng/mL IL1β, 10 ng/mL IL23, 50 ng/mL IL6, 3 ng/mL TGFβ and 20 U/mL IL2. Cells were cultured at 37° C. and 5% CO2 for 3 days. Supernatants were collected and the accumulated IL-17 in culture was measured by using MULTI-SPOT® Cytokine Plate following manufacture's instruction (Meso Scale Discovery). The plate was read using Sector Imager 6000, and IL-17 concentration was extrapolated from the standard curve. The IC50s were determined by GraphPad.

The target of assay [2] is T1, full-length human RORγt (Homo sapiens, UniProt P51449).
T1 construct: expressed in transfected cells; host or cells: HEK293T, transiently transfected with pCMV-BD-ROR
T1 sequence (P51449 1-497 isoform P51449-2): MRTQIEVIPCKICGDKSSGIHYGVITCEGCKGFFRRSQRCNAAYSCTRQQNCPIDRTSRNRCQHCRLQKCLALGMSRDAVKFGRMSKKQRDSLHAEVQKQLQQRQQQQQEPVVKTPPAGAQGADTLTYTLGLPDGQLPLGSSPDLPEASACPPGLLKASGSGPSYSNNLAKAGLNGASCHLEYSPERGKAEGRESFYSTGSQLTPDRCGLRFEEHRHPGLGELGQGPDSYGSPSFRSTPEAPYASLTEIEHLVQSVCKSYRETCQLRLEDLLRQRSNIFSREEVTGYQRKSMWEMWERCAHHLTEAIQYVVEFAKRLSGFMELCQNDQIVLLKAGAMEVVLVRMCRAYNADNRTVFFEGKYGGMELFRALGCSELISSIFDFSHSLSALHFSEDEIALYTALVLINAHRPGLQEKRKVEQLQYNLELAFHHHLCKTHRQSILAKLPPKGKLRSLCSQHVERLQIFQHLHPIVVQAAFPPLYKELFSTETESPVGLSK
Nature of the assay: RORγt (full-length human) Reporter Assay, Conditions A. The class given is cell-based. The settings on record: for pIC50: HEK293T cells, GAL4-DBD-RORγt, luciferase, read-out: RORγt (FL) Reporter Assay A, IC50; for inhibition at 6 µM: read-out: RORγt (FL) Reporter Assay A, % inhibition @ 6 μM, 6 μM compound. In short, it runs like this: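 Reporter cells lysed after 16–20 h compound exposure; firefly and Renilla luciferase luminescence measured. Firefly signal normalised to DMSO and saturating reference compound, then to Renilla; IC50 from normalised data versus concentration, percent inhibition relative to DMSO.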

In assay [3] the target is T2, human RORγt ligand binding domain (RORγt LBD) (Homo sapiens, UniProt P51449).
T2 construct: His-tag (N); TurboTEV protease cleavage site (ENLYFQG) (N); made in house; host or cells: E. coli (pHIS1, a modified pET expression vector)
T2 sequence (P51449 with tags, fused parts or gaps): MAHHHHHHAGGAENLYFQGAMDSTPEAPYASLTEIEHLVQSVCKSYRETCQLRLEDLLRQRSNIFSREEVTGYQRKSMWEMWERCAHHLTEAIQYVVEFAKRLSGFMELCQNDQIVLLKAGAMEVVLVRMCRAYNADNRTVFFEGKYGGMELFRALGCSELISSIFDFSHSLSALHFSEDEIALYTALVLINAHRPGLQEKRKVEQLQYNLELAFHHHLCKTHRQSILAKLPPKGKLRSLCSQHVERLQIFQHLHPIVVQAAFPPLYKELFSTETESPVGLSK
The assay is described as follows: RORγt ThermoFluor assay. The settings on record: estimated from thermal shift concentration response. The gist of the method: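 Thermal shift of RORγt LBD (0.065 mg/mL) with 60 μM 1,8-ANS in 100 mM Hepes pH 7.0, NaCl, GSH, 0.002% Tween-20, heated at 1° C/min. ANS fluorescence tracked versus temperature; ΔTm relative to DMSO wells. Compounds serially diluted 1:2 from 10 mM DMSO stock.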

In assay [4] the target is T1, full-length human RORγt. Nature of the assay: RORγt (full-length human) Reporter Assay, Conditions B or C. Format: cell-based. As to the method: HEK293T cells were plated at 35,000 per well in 96-well plate in medium of DMEM with 10% FBS. […] After overnight (16 to 20 hours) incubation, media were removed and cells were lysed with 50 μL Glo Lysis Buffer (Promega) for 10-15 minutes followed by 10 minute incubation with 50 uL Dual Glo reagent (Promega) at room temperature. Firefly luciferase luminescence was measured using a BMG Pherastar plate reader. To each well, 50 uL Stop and Glo reagent was added and incubated for 10 minutes at room temperature. Renilla luminescence was measured using a BMG Pherastar plate reader. To calculate the effect of compounds on RORγt activity, firefly values were normalized against values of DMSO only and values of reference compound at saturating concentration, then further normalized against Renilla signals. IC50s were generated by plotting final Renilla normalized data against compound concentration and percent inhibition was calculated against DMSO control. […] HEK293T cells were plated at 8750 cells per well in 384-well plate in medium of DMEM with 10% FBS. […] After overnight (16 to 20 hours) incubation, media were removed and cells were lysed with 20 μL Glo Lysis Buffer (Promega) for 10-15 minutes followed by 10 minute incubation with 20 uL Dual Glo reagent (Promega) at room temperature. Firefly luciferase luminescence was measured using a BMG Pherastar plate reader. To each well, 20 uL Stop and Glo reagent was added and incubated for 10 minutes at room temperature. Renilla luminescence was measured using a BMG Pherastar plate reader. To calculate the effect of compounds on RORγt activity, firefly values were normalized against values of DMSO only and values of reference compound at saturating concentration, then further normalized against Renilla signals. IC50s were generated by plotting final Renilla normalized data against compound concentration and percent inhibition was calculated against DMSO control.
On the technique in general: Reporter assays use an easily measured gene product as a stand-in for the process of interest.

Structures are written as SMILES. pIC50, pKd: −log10 of the molar value.

As usually defined, the pIC50 is the negative decadic logarithm of the IC50, by convention in mol/L. The term inhibition denotes the change of the read-out against control, counted positive when it falls. Broadly, the pKd is the negative decadic logarithm of the Kd, by convention in mol/L.

`C[C@H](NS(=O)(=O)c1ccc(-c2sc(-c3cc(CC(C)(C)C(=O)O)on3)nc2C(=O)N2CC(F)(F)C[C@@H]2C)c(C(F)F)c1F)C(F)(F)F` [Example 18/1, 3-(3-(4-((S)-4,4-Difluoro-2-methylpyrrolidine-1-carbonyl)-5-(2-(difluoromethyl)-3-fluoro-4-(N—((S)-1,1,1-trifluoropropan-2-yl)sulfamoyl)phenyl)thiazol-2-yl)isoxazol-5-yl)-2,2-dimethylpropanoic acid]: in assay [1], the pIC50 was 6.33. Further, on full-length human RORγt [2], the negative-log IC50 (pIC50) is 6.77 and the inhibition at 6 µM stood at 104%. Besides, the negative logarithm of the Kd (pKd) in assay [3] is 8.25.
For the compound `CC[C@H](NS(=O)(=O)c1ccc(-c2sc(-c3noc(CC(C)(C)C(=O)O)n3)nc2C(=O)N2CCC(F)(F)CC2)c(OC(F)(F)F)c1)C(F)(F)F` [Example 10/2, (S)-3-(3-(4-(4,4-Difluoropiperidine-1-carbonyl)-5-(4-(N-(1,1,1-trifluorobutan-2-yl)sulfamoyl)-2-(trifluoromethoxy)phenyl)thiazol-2-yl)-1,2,4-oxadiazol-5-yl)-2,2-dimethylpropanoic acid], the results for the negative-log IC50 (pIC50) (in assay [1]; on full-length human RORγt [2]) were 7.12 and 7.24, respectively. The inhibition at 6 µM at full-length human RORγt [2] stood at 106%. In assay [3], the negative logarithm of the Kd (pKd) was 10.40.
In the same order, the values of `CC[C@H](NS(=O)(=O)c1ccc(-c2sc(-c3nnn[nH]3)nc2C(=O)N2CCCC[C@@H]2C)c(Cl)c1Cl)C(F)(F)F` [Example 15, 2,3-Dichloro-4-(4-((S)-2-methylpiperidine-1-carbonyl)-2-(1H-tetrazol-5-yl)thiazol-5-yl)-N—((S)-1,1,1-trifluorobutan-2-yl)benzenesulfonamide] are 5.22, 5.72, 59% and 9.19.
`C[C@H](NS(=O)(=O)c1ccc(-c2sc(-c3nnc(C(C)(C)O)n3C3CC3)nc2C(=O)N2CCC(F)(F)CC2)c(Cl)c1Cl)C(F)(F)F` [Example 23, (S)-2,3-Dichloro-4-(2-(4-cyclopropyl-5-(2-hydroxypropan-2-yl)-4H-1,2,4-triazol-3-yl)-4-(4,4-difluoropiperidine-1-carbonyl)thiazol-5-yl)-N-(1,1,1-trifluoropropan-2-yl)benzenesulfonamide]: on full-length human RORγt [4] (HEK293T cells, GAL4-DBD-RORγt, luciferase, read-out: RORγt (FL) Reporter Assay B or C, IC50), the pIC50 is 7.40. On full-length human RORγt [4] (read-out: RORγt (FL) Reporter Assay B or C, % inhibition @ 6 μM, 6 μM compound), the inhibition at 6 µM stood at 109%. Moreover, the pKd in assay [3] was 8.51.
With `Cc1c(S(=O)(=O)N[C@@H](C)C(F)(F)F)ccc(-c2sc(-c3nnc(C(C)(C)O)o3)nc2C(=O)N2CCC(F)(F)CC2)c1Cl` [Example 27, 3-Chloro-4-(4-(4,4-difluoropiperidine-1-carbonyl)-2-(5-(2-hydroxypropan-2-yl)-1,3,4-oxadiazol-2-yl)thiazol-5-yl)-2-methyl-N—((S)-1,1,1-trifluoropropan-2-yl)benzenesulfonamide], the negative logarithm of the IC50 (pIC50) in assay [1] was 8.05. At full-length human RORγt [2], the negative logarithm of the IC50 (pIC50) was 7.52 and the inhibition at 6 µM was 107%. Further, the pKd in assay [3] is 9.42.
`C[C@H](NS(=O)(=O)c1ccc(-c2sc(-c3nnc(C(C)(C)O)o3)nc2C(=O)N2CCOC[C@@H]2C)c(Cl)c1Cl)C(F)(F)F` [Example 6/9, 2,3-Dichloro-4-(2-(5-(2-hydroxypropan-2-yl)-1,3,4-oxadiazol-2-yl)-4-((S)-3-methylmorpholine-4-carbonyl)thiazol-5-yl)-N—((S)-1,1,1-trifluoropropan-2-yl)benzenesulfonamide]: the pIC50 in assay [1] is 7.00; at full-length human RORγt [2], 6.96. Moreover, the inhibition at 6 µM at full-length human RORγt [2] was 108%. For the same compound, in assay [3], the negative logarithm of the Kd (pKd) is 8.19.
For the compound `CC(C)(O)c1nnc(-c2nc(C(=O)N3CCC(F)(F)CC3)c(-c3ccc(C(O)C4(C(F)(F)F)CC4)c(Cl)c3Cl)s2)o1` (centres unmarked) [Example 8/4, (5-(2,3-Dichloro-4-(hydroxy(1-(trifluoromethyl)cyclopropyl)methyl)phenyl)-2-(5-(2-hydroxypropan-2-yl)-1,3,4-oxadiazol-2-yl)thiazol-4-yl)(4,4-difluoropiperidin-1-yl)methanone], the negative logarithm of the IC50 (pIC50) in assay [1] was around 5.22. Also, at full-length human RORγt [2], the pIC50 was 6.49 and the inhibition at 6 µM amounted to 47%. The negative logarithm of the Kd (pKd) in assay [3] is 7.92.
In the same order, the values of `CCN(CC)C(=O)c1nc(-c2nnc(CC(C)(C)C(=O)O)o2)sc1-c1ccc(S(=O)(=O)N[C@@H](C)C(F)(F)F)c(Cl)c1Cl` [Example 1, (S)-3-(5-(5-(2,3-Dichloro-4-(N-(1,1,1-trifluoropropan-2-yl)sulfamoyl)phenyl)-4-(diethylcarbamoyl)thiazol-2-yl)-1,3,4-oxadiazol-2-yl)-2,2-dimethylpropanoic acid] are 7.27, 5.96, 89% and 8.89.
On to `C[C@H](NS(=O)(=O)c1ccc(-c2sc(-c3cc(CC(C)(C)C(=O)O)on3)nc2C(=O)N2CCC(F)(F)CC2)c(C(F)F)c1F)C(F)(F)F` [Example 18, (S)-3-(3-(5-(2-(Difluoromethyl)-3-fluoro-4-(N-(1,1,1-trifluoropropan-2-yl)sulfamoyl)phenyl)-4-(4,4-difluoropiperidine-1-carbonyl)thiazol-2-yl)isoxazol-5-yl)-2,2-dimethylpropanoic acid], for which the values for the pIC50 (in assay [1]; at full-length human RORγt [2]) were 6.39 and 6.46, respectively. In addition, the inhibition at 6 µM at full-length human RORγt [2] stood at 103%. The pKd in assay [3] was 8.43.

These data come from US9845319B2, “Amide substituted thiazoles as modulators of RORyt” (Janssen Pharmaceutica NV, priority 2014, dated 2017).
